Source: patent US20120122936A1, “LEAVE-ON NONSOLID SKIN CONDITIONING COMPOSITIONS CONTAINING 12-[(12-HYDROXYOCTADECANOYL)OXY] OCTADECANOIC ACID” (CONOPCO, INC., D/B/A UNILEVER, priority 2010, published 2012)

Experiments:
[1] = test system: primary human keratinocytes; assay: Involucrin expression (differentiation) in primary human keratinocytes, Western blot; format: cell-based; details: for Involucrin expression (arbitrary unit) at day 1: day 1 (24 h), 0.1% DMSO control 27.85; for Involucrin expression (arbitrary unit) at day 2: day 2 (48 h), 0.1% DMSO control 33.91; for Effect on human keratinocyte differentiation (involucrin expression compared to vehicle control): vs 0.1% DMSO, day 2
Experimental: The effect of 12HSA and 12-[(12-hydroxyoctadecanoyl)oxy]octadecanoic acid on differentiation in primary human keratinocytes was evaluated.
The compounds were dissolved in DMSO at 10 mM as the initial stock solutions and then diluted to appropriate final concentrations, 0.1 μM, 1 μM, 10 μM for 12-[(12-hydroxyoctadecanoyl)oxy]octadecanoic acid and 1 μM, 10 μM for the monomer with culture medium for treatments. 0.1% DMSO was used as the vehicle control. Primary human keratinocytes (Passage 2) grown to 70% confluency in EpiLife medium (Gibco MEP1500CA, 0.06 mM Calcium), trypsinized, cell number counted and Re-suspended in medium to make final cell counts at 5×10^4/ml. 100, 000 cells seeded per well in a 6 well plate. The cells again grown to 70% confluency, and then treated with 12-HSA monomer, 12-[(12-hydroxyoctadecanoyl)oxy]octadecanoic acid, and 0.1% DMSO as control. Treated cells incubated for 24 h and 48 h, and harvested at the corresponding time points. Proteins were extracted from the cultures and protein concentration was quantified by Quick start Bradford dye reagent (BioRad #500-0205). 5 ug protein samples were subjected to 4-20% protein gel (BioRad Criterion #345-0034), separated by running gel at 175 Volt for about 1 hour. Proteins were transferred to PVDF membrane (iBlot Gel transfer stacks PVDF, Invitrogen IB4010-01). The PVDF membrane was blocked in 1% BSA/PBS for 30 min and incubated with involucrin primary antibody (1:4000 dilution) in 1% BSA/PBS at 4° C. O/N (Sigma 19018), washed three times with TBS-Tween (Sigma T-9039) for 15 min each. The membrane then incubated with a secondary antibody in 1% BSA/PBS at RT for 1 h (Cy5-conjugated Affipure Goat anti mouse IgG, Jackson ImmunoResearch Lab #115-175-003), washed three times with TBS-Tween for 15 min each, and scanned with Licor/Odyssey (Li-Cor Bioscience). The images obtained were analyzed for the involucrin bands for signal intensity by Odyssey v3.0 analysis program (Li-Cor Bioscience).

[2] = test system: primary human neonatal fibroblasts; assay: ATP production by primary human fibroblasts, CellTiter-Glo luminescent cell viability assay; format: cell-based; details: for Luminescence reading (average): 2 x 24 h dosing, 4 wells, 0.1% DMSO control 2245457; for Effect on fibroblast energy production (ATP, luminescence readings): statistically significant improvement at 100 μM
Experimental: The effect of 12HSA and 12-[(12-hydroxyoctadecanoyl)oxy]octadecanoic acid on ATP production by primary human fibroblasts was assayed.
The samples were prepared as in Example 2, except the final concentrations were at 0.1 μM, 1 μM, 10 μM, 100 μM for both compounds. Again 0.1% DMSO in media is used as the vehicle control. Primary human neonatal fibroblasts grown in DMEM medium (high glucose supplemented with 2 mM Lglutamine, 10% fetal bovine serum, antibiotic) to 70% confluency, trypsinized, and re-suspended in medium. 7,500 cells seeded per well in the inner 60 wells of a 96-well plate in the same DMEM medium and grown for 3 days. The medium removed and the cells washed with serum-free DMEM, and then dosed with 200 μl serum-free DMEM medium containing appropriate concentrations of the testing compounds. Each dosing was replicated in 4 wells. After 24 hours, test compound solution was removed and the cells were treated with a fresh solution of the same treatment. After another 24 hours, the ATP production of the cultures was assayed by CellTiter-Glo luminescent Cell viability assay (Promega #G7572) and luminescence readings measured. Average readings were calculated for every treatment.
Statistical analysis was done by student t-Test with the assumption that the two samples had two tailed distribution with equal variance.

[3] = Observation of mixtures with lipophilic cosmetically acceptable carriers (gelling vs flowable liquid); format: physicochemical; details: for Result of mixtures with indicated carriers: 10% in 90% carrier, summary of Table 3
Experimental: Various mixtures were prepared with common lipohilic cosmetically acceptable carrier that are liquid at temperatures up to 40° C. Observation were recorded in Table 3.

Row | Structure (SMILES) | Involucrin expression (arbitrary unit) at day 1 ([1]; 1 μM) [arbitrary unit] | Involucrin expression (arbitrary unit) at day 2 ([1]; 1 μM) [arbitrary unit] | Involucrin expression (arbitrary unit) at day 1 ([1]; 10 μM) [arbitrary unit] | Involucrin expression (arbitrary unit) at day 2 ([1]; 10 μM) [arbitrary unit] | Effect on human keratinocyte differentiation (involucrin expression compared to vehicle control) [1] | Luminescence reading (average) ([2]; 0.1 μM) | Luminescence reading (average) ([2]; 1 μM) | Luminescence reading (average) ([2]; 10 μM) | Luminescence reading (average) ([2]; 100 μM) | Effect on fibroblast energy production (ATP, luminescence readings) [2] | Observations ([3]; 10% in 90% DC200-10cS) | Observations ([3]; 10% in 90% Light Mineral Oil) | Observations ([3]; 10% in 90% Sunflower seed oil) | Observations ([3]; 10% in 90% Tween40) | Result of mixtures with indicated carriers [3] | Observations ([3]; 10% in 90% cyclomethicone-D5) | Observations ([3]; 10% in 90% isostearyl alcohol) | Observations ([3]; 10% in 90% oleic acid) | other results
1 | CCCCCCC(O)CCCCCCCCCCC(=O)OC(CCCCCC)CCCCCCCCCCC(=O)O (stereo not shown) [12-[(12-hydroxyoctadecanoyl)oxy]octadecanoic acid] | 36.67 | 33.14 | 33.77 | 29.46 | did not have an effect | 2261382 | 2550326 | 2594799 | 2794979 | stimulated fibroblast energy production | flowable | flowable | clear | clear | flowable, or even clear, liquids | flowable | clear | clear | Involucrin expression (arbitrary unit) at day 1 ([1]; 0.1 μM): 35.85 arbitrary unit; Involucrin expression (arbitrary unit) at day 2 ([1]; 0.1 μM): 32.61 arbitrary unit; Observations ([3]; 10% in 90% Isopropyl myristate): liquid
2 | CCCCCCC(O)CCCCCCCCCCC(=O)O (stereo not shown) [12HSA, 12-hydroxyoctadecanoic acid, reference compound] | 26.7 | 56.03 | 34.51 | 69.52 | stimulated human keratinocyte differentiation | 2359722 | 2398308 | 2304763 | 2151797 | did not | paste | hard gel | hard gel | gel | gelled the carrier | soft gel | gel | gel | Observations ([3]; 10% in 90% Isopropyl palmitate): hard gel
